According to patent US8883415B2, “Aza-benzazolium containing cyanine dyes” (Life Technologies Corporation, priority 1999, dated 2014):
“Also recorded” adds a separate entry of the source.

Legend:
Type in all cases: binding
double-stranded DNA [1] = test: Detecting double-stranded DNA in solution (fluorescence microplate reader)
Method: Samples containing 0.1 ng/mL to 1 microgram/mL double-stranded DNA are prepared in 10 mM Tris-HCl, 1 mM EDTA, pH 7.5. The selected dye of the invention is dissolved in DMSO at a concentration of 1-10 mM and then diluted into the same buffer at a concentration sufficient to achieve final optical densities of 0.1 and 0.01 at 500 nm, 530 nm, 540 nm or 560 nm. Equal volumes (100 microliters each) of DNA sample solution and dye solution at each concentration are combined and mixed gently at room temperature in a microplate well.
Samples are allowed to equilibrate for 5-60 minutes, protected from light, and the fluorescence of the sample is measured using a fluorescence microplate reader. DNA concentration is determined by comparison of the sample fluorescence with a standard curve obtained with that dye for each dye concentration. The sensitivity limit of several dyes in this assay is shown (Table 5).

[2] = system: double-stranded bacteriophage λ cl857 DNA that is digested with HindIII restriction endonuclease; test: Detecting nucleic acids in gels; conditions: 1 micromolar dye
Method: DNA samples are loaded onto agarose or polyacrylamide gels and electrophoresed using standard conditions. Selected dyes of the invention are dissolved in DMSO at a concentration of 1-10 micromolar and diluted into 0.5×TBE buffer to a final concentration of 1 micromolar dye. Gels are incubated for 20-90 minutes in this staining solution, with gentle agitation, at room temperature, protected from light. Nucleic acids are visualized by transillumination at 300 nm, followed by direct visual detection or photography using Polaroid black-and-white print film. Nucleic acids are alternatively visualized by scanning using a FMBIO II laser scanner with a 532 nm frequency-doubled YAG laser source or a charge-coupled device camera system coupled with an ultraviolet (300 nm) light source, or a visible light transilluminator.

[3] = system: double-stranded bacteriophage λ cl857 DNA that is digested with HindIII restriction endonuclease; test: Detecting nucleic acids in gels; conditions: POLAROID 667 B&W film; FOTODYNE 254 nm epi.; 1 micromolar dye
double-stranded DNA [4] = test: Detecting double-stranded DNA in the presence of single-stranded DNA; conditions: nucleic acids 2 micrograms/mL; dye 1 micromolar; excitation 540 nm, emission 570 nm
Method: Samples containing nucleic acids at a concentration of 2 micrograms/mL are combined with Compound 16, Compound 22, or Compound 24 at a final dye concentration of 1 micromolar in 10 mM Tris-HCl, 1 mM EDTA, pH 7.5, and mixed gently. The resulting mixture is allowed to incubate for 5-60 minutes at room temperature, protected from light, and sample fluorescence is measured using a fluorescence microplate reader, with excitation at 540 nm and emission at 570 nm. […] If, however, the dye concentration is reduced relative to the concentration of single-stranded nucleic acids, the fluorescence upon binding those nucleic acids increases relative to that of the double-stranded DNA-dye complex. Thus the assay is always performed in sufficient dye excess.

[5] = system: 18-base oligodeoxynucleotide sequencing primer; test: Detecting oligonucleotides in solution
Method: Selected dyes of the invention are dissolved in DMSO at 1-10 micromolar concentration, then diluted into 10 mM Tris-HCl, 1 mM EDTA, pH 7.5 to a final optical density of 0.1 or 0.01 at 530 nm or 540 nm. The resulting dye solutions are combined with an equal volume of an 18-base oligodeoxynucleotide sequencing primer solution at concentrations of 0.1 ng/mL to 1 microgram/mL in the same buffer. The resulting mixture is mixed gently and incubated for 5-60 minutes at room temperature, protected from light, and the sample fluorescence is measured in a fluorescence microplate reader.

[6] = system: Escherichia coli ribosomal RNA; test: Detecting RNA in solution
Method: Selected dyes of the invention are dissolved in DMSO at 1-10 micromolar concentration, then diluted into 10 mM Tris-HCl, 1 mM EDTA, pH 7.5 to a final optical density of 0.1 or 0.01 at 530 nm or 540 nm. These dye solutions are combined with an equal volume of Escherichia coli ribosomal RNA at concentrations ranging from 0.25 ng/mL to 1 microgram/mL in microplate wells. The resulting mixtures are mixed gently and incubated for 5-60 minutes at room temperature, protected from light, and the sample fluorescence is measured.

[7] = Excitation 530 nm/Emission 560 nm
[8] = BOEHRINGER MANNHEIM LUMIIMAGER CCD, 300 nm trans., 520 nm em.
[9] = BOEHRINGER MANNHEIM LUMIIMAGER CCD, 300 nm trans., 545 nm em
[10] = HITACHI FMBIO II laser scanner, 532 nm freq.-doubled YAG laser
[11] = POLAROID 667 B&W film, DARK READER visible light box
[12] = POLAROID 667 B&W film, FOTODYNE 300 nm trans.
[13] = Excitation 540 nm/Emission 570 nm

Row | SMILES | Sensitivity Limit, High dye concentration (0.1 OD) (double-stranded DNA [1]; [7]) [ng/mL] | Sensitivity Limit, Low dye concentration (0.01 OD) (double-stranded DNA [1]; [7]) [ng/mL] | Sensitivity for detecting double-stranded DNA in agarose gels [2, 8] [pg] | Sensitivity for detecting double-stranded DNA in agarose gels [2, 9] [pg] | Sensitivity for detecting double-stranded DNA in agarose gels [2, 10] [pg] | Sensitivity for detecting double-stranded DNA in agarose gels [2, 12] [pg] | Sensitivity for detecting double-stranded DNA in agarose gels [3] [pg] | Sensitivity Limit, High dye concentration (0.1 OD) (double-stranded DNA [1]; [13]) [ng/mL] | Sensitivity Limit, Low dye concentration (0.01 OD) (double-stranded DNA [1]; [13]) [ng/mL] | other results
1 | CCCCC1=C/C(=C\c2nc3c(ccc[n+]3C)o2)c2ccccc2N1c1ccccc1.[I-] [Compound 15] | 10 | 0.5 | 210 | 100 | 100 | 240 | 60 | – | – | Sensitivity for detecting double-stranded DNA in agarose gels [2, 11]: 480 pg
2 | CN1C(c2ccccc2)=C/C(=C\c2nc3c(ccc[n+]3C)o2)c2ccccc21.[I-] [Compound 16] | – | – | 210 | 50 | 25 | 120 | 30 | <10 | 1.0 | Preferential fluorescent staining of double-stranded DNA in the presence of single-stranded DNA and RNA (double-stranded DNA [4]): preferential fluorescent staining of double-stranded DNA; also recorded: detected preferentially; Sensitivity for detecting double-stranded DNA in agarose gels [2, 11]: 240 pg
3 | C[n+]1cccc2oc(/C=C3\C=C(c4ccccc4)N(c4ccccc4)c4ccccc43)nc21.[I-] [Compound 17] | <10 | 2.0 | – | – | – | – | – | – | – | –
4 | CCN1C(c2ccccc2)=C/C(=C\c2nc3c(ccc[n+]3C)o2)c2cc3c(cc21)OCO3.[I-] [Compound 18] | <10 | 0.2 to 0.5 | 210 | 100 | 50 | 120 | 60 | – | – | Sensitivity Limit, High dye concentration (0.1 OD) [5, 7]: <10 ng/mL; Sensitivity Limit, Low dye concentration (0.01 OD) [5, 7]: >10 ng/mL; Sensitivity Limit, High dye concentration (0.1 OD) [6, 7]: 10 ng/mL; Sensitivity Limit, Low dye concentration (0.01 OD) [6, 7]: 1.2 ng/mL
5 | COc1ccc2c(c1)/C(=C/c1nc3c(ccc[n+]3C)o1)C=C(c1ccccc1)N2C.[I-] [Compound 19] | – | – | – | – | – | – | – | <10 | 0.5 | Sensitivity Limit, High dye concentration (0.1 OD) [5, 13]: <10 ng/mL; Sensitivity Limit, Low dye concentration (0.01 OD) [5, 13]: >10 ng/mL; Sensitivity Limit, High dye concentration (0.1 OD) [6, 13]: 20 ng/mL; Sensitivity Limit, Low dye concentration (0.01 OD) [6, 13]: 10 ng/mL
6 | COc1ccc2c(c1)N(C)C(c1ccccc1)=C/C2=C\c1nc2c(ccc[n+]2C)o1.[I-] [Compound 21] | <10 | 0.2 | 420 | 50 | 50 | 120 | 60 | – | – | –
7 | CCN(CC)Cc1ccc(C2=C/C(=C\c3nc4c(ccc[n+]4C)o3)c3cc(OC)ccc3N2C)cc1.[I-] [Compound 23] | – | – | 830 | 100 | 5 | 120 | 60 | <10 | 0.2 | Sensitivity Limit, High dye concentration (0.1 OD) [5, 13]: <10 ng/mL; Sensitivity Limit, Low dye concentration (0.01 OD) [5, 13]: 1.0 ng/mL; Sensitivity Limit, High dye concentration (0.1 OD) [6, 13]: 200 ng/mL; Sensitivity Limit, Low dye concentration (0.01 OD) [6, 13]: 2.5 ng/mL; Sensitivity for detecting double-stranded DNA in agarose gels [2, 11]: 240 pg
8 | C[n+]1cccc2oc(/C=C3\C=C(Cl)N(c4ccccc4)c4ccccc43)nc21 [Compound 29] | – | – | – | – | – | – | – | 100 | 2.0 | –
9 | CCN(CC)C1=C/C(=C\c2nc3c(ccc[n+]3C)o2)c2ccccc2N1c1ccccc1 [Compound 30] | 10 | 1.0 | – | – | – | – | – | – | – | –
10 | CN1C=C/C(=C\c2nc3cc[n+](C)cc3o2)c2ccccc21.[I-] [Compound 31] | 50 | 2.0 | – | – | – | – | – | – | – | –
11 | CN1C(Sc2ccccn2)=C/C(=C\c2nc3c(ccc[n+]3C)s2)c2ccccc21.[I-] [Compound 32] | 10 | 1.0 | – | – | – | – | – | – | – | –
